Patent US9986723B2, “Screen and use of therapeutics for pancreatic ductal adenocarcinoma” (The Board of Regents of the University of Texas System, priority 2014, dated 2018)

Legend:
primary PDA cells = experiment: Rgs16::GFP PDA primary cell culture, live cell counts after 24 hr drug treatment; type: cell-based, mouse; conditions: 24 hr, gemcitabine 10 μM, BGB324 or warfarin 1 or 10 μM
Description: Cell proliferation counts of primary PDA culture after 24 hr treatment with (FIG. 20A) gemcitabine (purple round); (FIG. 20B) BGB324 (green round); (FIG. 20C) warfarin (blue round); or (FIG. 20D) BGB324 with warfarin (green or blue round) at the indicated concentrations. PDA primary cells were plated at equal density (black open circle) at the start. Next day, cells were treated with drugs (D, red font) for 24 hr (red line). Approximate cell number at the start of drug treatment was obtained from another plate with equal density (red open circle). At the end of treatment, cells in each group were counted and subsequent passages started with cells plated at equal density (grey asterisk). Drug treated groups were allowed to grow without drug selection thereafter. Control cells (Ctrl) on separate plates were grown without drug and counted at the end of each passage (black open circle). PDA live cell numbers were obtained via counts using a hemocytometer after 2% Trypan blue staining to distinguish between living and dead cells under an inverted microscope with 10× objective. Statistical significances are based on comparison of drug-treated cell counts to Ctrl. […] Statistical analyses were obtained by comparing counts of drug-treated cells to Ctrl via unpaired and two-tailed Student's t-test. *, p<0.05; **, p<0.01; ***, p<0.001; ****, p<0.0001. Asterisks match the color of the comparison group.
Rgs16::GFP PDA primary cell culture. Primary Rgs16::GFP PDA cells were harvested from 6-week-old KIC mice. Cells were grown in 25 mM Glucose DMEM (HyClone) with 10% FBS (Serum Source International), penicillin and streptomycin (Life Technologies) on rat tail collagen typel (BD Biosciences) coated plates (0.5 μg/cm^2) in a humidified incubator at 37° C. and 5% CO2. Cells reaching confluency were washed twice with PBS (HyClone) and lifted with 0.05% Trypsin-EDTA (HyClone) treatment up to 10 min in the incubator. For drug tests in FIGS. 20A-D, primary PDA cells were incubated with gemcitabine (10 μM dissolved in PBS), warfarin (1 μM or 10 μM dissolved in water), BGB324 (1 μM or 10 μM dissolved in DMSO) or warfarin and BGB324 together for 24 hrs in 37° C. incubator. PDA live cell numbers were obtained via counts using a hemocytometer following 2% trypan blue staining to distinguish dead cells under an inverted microscope.

Axl = biological target: T1, Axl (Homo sapiens, UniProt P30530); experiment: Phosphorylated Axl in Panc-1 cells (western blot, immunofluorescence); type: cell-based; conditions: overnight, 1% serum, 2 μM
T1 construct: Lysates were probed for total Axl (tAxl) and phosphorylated Axl (pAxl); endogenous in cells; host or cells: Panc-1
Description: (FIG. 24A) HEK293 cells engineered to stably express recombinant Gas6 were grown in the presence of Vitamin K or Vitamin K+warfarin. Gas6 levels and γ-carboxylation were assayed by immunoblotting conditioned media. Conditioned media from untransfected HEK293 cells was used as a negative control. (FIG. 24B) Panc1 cells were grown overnight in media with 1% serum with no additions (NT), warfarin (2 μM) or BGB324 (2 μM). Lysates were probed for total Axl (tAxl) and phosphorylated Axl (pAxl). (FIG. 24C) Panc1 cells were grown in the presence of control media, Vitamin K, warfarin or warfarin+Vitamin K. The level of phosphorylated Axl (pAXL, red) was determined by immunofluorescence. (FIG. 24D) Panc1 cells were grown overnight in media with 1% serum with no additions (control), warfarin (1 μM), Gas6 (1.3 nM) or Gas6+warfarin. Lysates were probed for phosphorylated Akt (pAkt) and actin. (FIG. 24E) Lysates from Panc1 tumors harvested from mice treated with control or warfarin were probed for expression of tAxl, pAxl, actin, pAKT, tAKT, and cleaved Parp. (FIG. 24F) The effect of warfarin on cell migration was assessed by a ‘scratch’ assay. Monolayers of the indicted cells were wounded with a pipet tip. The cells were incubated in media containing 2% serum+/−warfarin (2 μM) or media containing 2% serum+Gas6 (1.3 nM)+/−warfarin.

Panc-1 cells = experiment: In vitro EMT assay (TGF-β and collagen); type: cell-based, human; conditions: warfarin 2 μM
Description: FIGS. 26A-C. […] (FIG. 26A) the expression level of pAxl, Zeb1 and nuclear β-catenin in Panc1 cells in vitro was measured by immunofluorescence under normal culture conditions or after growth on collagen matrix and treatment with TGF-β (20 ng/ml) to induce epithelial to mesenchymal transition, with or without warfarin (2 μM). p-Axl was normalized to total Axl area. (FIG. 26B) Panc1 cells were treated with either SFM, recombinant Gas 6 (100 ng/ml) or Gas6 following pretreatment with 10C9 (mAb anti-Axl). Transition to a mesenchymal phenotype was characterized by changes in vimentin and nuclear Zeb1 expression determined by immunofluoresence. […] (FIG. 26C) Paraffin embedded sections of Panc-1 tumors were analyzed by immunofluorescence for markers of EMT.

[1] = biological target: vitamin K epoxide reductase (Homo sapiens, UniProt Q9BQB6); conditions: cited from earlier work
vitamin K epoxide reductase, sequence (Q9BQB6 whole entry): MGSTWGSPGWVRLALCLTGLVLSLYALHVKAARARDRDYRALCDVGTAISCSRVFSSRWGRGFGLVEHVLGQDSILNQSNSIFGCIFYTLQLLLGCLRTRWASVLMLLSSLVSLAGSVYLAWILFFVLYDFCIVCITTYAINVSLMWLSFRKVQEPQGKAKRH

T1 sequence (P30530 26-894): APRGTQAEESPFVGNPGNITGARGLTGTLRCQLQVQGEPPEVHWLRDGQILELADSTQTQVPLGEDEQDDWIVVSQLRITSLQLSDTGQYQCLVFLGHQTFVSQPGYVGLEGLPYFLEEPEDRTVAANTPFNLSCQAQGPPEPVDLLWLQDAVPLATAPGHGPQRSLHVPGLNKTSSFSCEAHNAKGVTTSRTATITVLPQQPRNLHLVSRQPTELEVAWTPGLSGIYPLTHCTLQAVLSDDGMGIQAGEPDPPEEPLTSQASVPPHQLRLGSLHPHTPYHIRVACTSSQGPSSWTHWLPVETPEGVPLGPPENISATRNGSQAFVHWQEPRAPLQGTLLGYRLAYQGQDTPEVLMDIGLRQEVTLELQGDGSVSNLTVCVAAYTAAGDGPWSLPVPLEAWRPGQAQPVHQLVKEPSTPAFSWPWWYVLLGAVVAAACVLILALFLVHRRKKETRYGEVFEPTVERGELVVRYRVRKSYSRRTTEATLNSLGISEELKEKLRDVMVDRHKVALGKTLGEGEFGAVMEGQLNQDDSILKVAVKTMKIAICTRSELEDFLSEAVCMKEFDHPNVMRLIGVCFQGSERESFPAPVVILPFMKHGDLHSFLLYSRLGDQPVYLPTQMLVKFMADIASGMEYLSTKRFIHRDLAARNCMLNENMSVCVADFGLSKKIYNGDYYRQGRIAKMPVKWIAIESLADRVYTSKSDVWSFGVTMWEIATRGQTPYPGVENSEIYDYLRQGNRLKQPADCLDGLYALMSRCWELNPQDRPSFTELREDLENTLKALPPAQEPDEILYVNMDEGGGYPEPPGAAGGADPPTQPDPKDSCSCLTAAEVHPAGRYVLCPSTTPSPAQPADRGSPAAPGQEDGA

With `CC(=O)CC(c1ccccc1)c1c(O)c2ccccc2oc1=O` (racemic) [Warfarin] as the molecule, how does the “effect on cell viability and proliferation” value (primary PDA cells) read?
The value was “little or no effect on cell growth”.

And the “effect on cell viability and proliferation” value (primary PDA cells; listed as warfarin)?
The value was “no effect”.

What about the “phosphorylation of Axl (pAxl)” value (Axl) of the same molecule?
Its value is “inhibited basal pAxl levels”.

What about the “Zeb1 and nuclear β-catenin levels” value (Panc-1 cells; TGF-β 20 ng/ml, collagen) of the same molecule?
Its value is “significantly reduced”.

What about the “TGFβ and collagen I enhanced Axl expression and activation” value (Panc-1 cells) of the same molecule?
Its value is “blocked”.

And the “duration of action of a single dose” value [1]?
The value was 2 to 5 days.
